Consider twelve molecules from ChEMBL document CHEMBL1150386 (J Med Chem, 2008).

Test [1] concerns the target T1, Acetylcholinesterase (Rattus norvegicus, UniProt P37136).
T1 sequence (P37136 whole entry): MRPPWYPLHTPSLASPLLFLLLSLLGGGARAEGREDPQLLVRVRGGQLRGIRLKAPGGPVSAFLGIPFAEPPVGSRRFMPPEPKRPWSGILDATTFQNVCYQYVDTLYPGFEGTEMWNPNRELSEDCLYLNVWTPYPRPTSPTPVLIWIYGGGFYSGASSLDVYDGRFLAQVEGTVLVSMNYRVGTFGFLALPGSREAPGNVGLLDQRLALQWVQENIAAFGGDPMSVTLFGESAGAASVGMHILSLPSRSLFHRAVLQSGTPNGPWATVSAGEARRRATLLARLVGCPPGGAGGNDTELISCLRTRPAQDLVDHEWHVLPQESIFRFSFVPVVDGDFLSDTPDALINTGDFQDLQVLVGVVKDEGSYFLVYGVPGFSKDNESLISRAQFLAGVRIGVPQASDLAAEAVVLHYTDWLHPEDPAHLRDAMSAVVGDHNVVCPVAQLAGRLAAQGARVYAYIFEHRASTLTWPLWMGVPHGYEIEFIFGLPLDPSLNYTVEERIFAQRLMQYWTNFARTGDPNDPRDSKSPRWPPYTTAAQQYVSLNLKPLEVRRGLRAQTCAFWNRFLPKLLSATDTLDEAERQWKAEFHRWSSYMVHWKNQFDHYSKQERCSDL

The target in test [2] is Cholinesterase (Mus musculus, UniProt Q03311).
Cholinesterase (Mus musculus, UniProt Q03311), sequence (Q03311 whole entry): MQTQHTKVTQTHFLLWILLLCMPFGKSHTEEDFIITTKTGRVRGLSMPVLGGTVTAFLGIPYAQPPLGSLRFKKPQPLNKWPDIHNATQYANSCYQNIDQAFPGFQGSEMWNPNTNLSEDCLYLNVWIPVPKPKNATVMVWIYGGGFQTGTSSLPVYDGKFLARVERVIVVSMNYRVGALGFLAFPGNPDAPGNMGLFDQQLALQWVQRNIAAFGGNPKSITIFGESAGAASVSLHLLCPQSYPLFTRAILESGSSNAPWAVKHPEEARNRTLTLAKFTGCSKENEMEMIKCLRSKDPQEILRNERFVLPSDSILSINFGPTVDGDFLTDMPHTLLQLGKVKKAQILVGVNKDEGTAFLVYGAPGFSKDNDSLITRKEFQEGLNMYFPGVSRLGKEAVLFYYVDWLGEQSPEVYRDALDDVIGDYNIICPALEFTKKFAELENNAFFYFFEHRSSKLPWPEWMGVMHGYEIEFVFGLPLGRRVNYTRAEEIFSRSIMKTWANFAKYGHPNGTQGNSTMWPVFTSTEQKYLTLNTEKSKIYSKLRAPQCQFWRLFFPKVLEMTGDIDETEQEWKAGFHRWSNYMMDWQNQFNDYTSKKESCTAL
Description: Inhibition of mouse BuChE
For test [3], the target named is T2, Acetylcholinesterase (Torpedo californica, UniProt P04058). The test can be described thus: Inhibition of Torpedo californica AChE assessed as carbamylation. Set-up: species or system Tetronarce californica.
T2 sequence (P04058 whole entry): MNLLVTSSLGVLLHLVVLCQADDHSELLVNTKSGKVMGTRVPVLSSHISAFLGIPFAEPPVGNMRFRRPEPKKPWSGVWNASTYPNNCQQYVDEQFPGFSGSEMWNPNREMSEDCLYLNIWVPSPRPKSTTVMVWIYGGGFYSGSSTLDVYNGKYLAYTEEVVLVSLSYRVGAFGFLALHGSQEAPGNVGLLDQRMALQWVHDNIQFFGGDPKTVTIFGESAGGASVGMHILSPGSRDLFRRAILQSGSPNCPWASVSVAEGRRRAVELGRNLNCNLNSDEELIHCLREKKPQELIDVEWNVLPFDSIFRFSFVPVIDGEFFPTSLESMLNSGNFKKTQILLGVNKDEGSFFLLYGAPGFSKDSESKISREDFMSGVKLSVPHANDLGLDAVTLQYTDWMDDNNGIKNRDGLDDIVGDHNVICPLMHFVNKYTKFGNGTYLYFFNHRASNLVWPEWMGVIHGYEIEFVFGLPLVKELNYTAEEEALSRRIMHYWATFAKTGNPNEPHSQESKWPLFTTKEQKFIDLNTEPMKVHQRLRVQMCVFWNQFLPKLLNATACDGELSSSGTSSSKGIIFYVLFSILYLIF
Test [4] concerns the target T3, Acetylcholinesterase (Bos taurus, UniProt P23795).
T3 sequence (P23795 whole entry): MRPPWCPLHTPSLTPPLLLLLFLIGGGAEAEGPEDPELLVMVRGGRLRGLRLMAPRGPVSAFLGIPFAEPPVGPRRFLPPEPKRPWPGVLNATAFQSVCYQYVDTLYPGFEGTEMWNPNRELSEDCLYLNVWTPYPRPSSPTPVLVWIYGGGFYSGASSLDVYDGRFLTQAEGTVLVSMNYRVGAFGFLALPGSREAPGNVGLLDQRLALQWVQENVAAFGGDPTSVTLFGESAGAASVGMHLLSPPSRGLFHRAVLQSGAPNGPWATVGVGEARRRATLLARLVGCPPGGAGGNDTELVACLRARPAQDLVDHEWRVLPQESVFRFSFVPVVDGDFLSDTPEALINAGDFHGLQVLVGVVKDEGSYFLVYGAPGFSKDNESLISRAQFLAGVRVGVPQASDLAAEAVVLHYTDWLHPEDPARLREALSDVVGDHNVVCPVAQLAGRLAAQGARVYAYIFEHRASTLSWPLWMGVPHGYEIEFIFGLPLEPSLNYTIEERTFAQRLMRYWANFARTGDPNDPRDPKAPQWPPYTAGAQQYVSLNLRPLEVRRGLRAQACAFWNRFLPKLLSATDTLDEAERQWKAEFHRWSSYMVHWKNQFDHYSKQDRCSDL
Kind of test: Inhibition of bovine AChE.

Test [5] deals with T4, Acetylcholinesterase (Mus musculus, UniProt P21836).
T4 sequence (P21836 whole entry): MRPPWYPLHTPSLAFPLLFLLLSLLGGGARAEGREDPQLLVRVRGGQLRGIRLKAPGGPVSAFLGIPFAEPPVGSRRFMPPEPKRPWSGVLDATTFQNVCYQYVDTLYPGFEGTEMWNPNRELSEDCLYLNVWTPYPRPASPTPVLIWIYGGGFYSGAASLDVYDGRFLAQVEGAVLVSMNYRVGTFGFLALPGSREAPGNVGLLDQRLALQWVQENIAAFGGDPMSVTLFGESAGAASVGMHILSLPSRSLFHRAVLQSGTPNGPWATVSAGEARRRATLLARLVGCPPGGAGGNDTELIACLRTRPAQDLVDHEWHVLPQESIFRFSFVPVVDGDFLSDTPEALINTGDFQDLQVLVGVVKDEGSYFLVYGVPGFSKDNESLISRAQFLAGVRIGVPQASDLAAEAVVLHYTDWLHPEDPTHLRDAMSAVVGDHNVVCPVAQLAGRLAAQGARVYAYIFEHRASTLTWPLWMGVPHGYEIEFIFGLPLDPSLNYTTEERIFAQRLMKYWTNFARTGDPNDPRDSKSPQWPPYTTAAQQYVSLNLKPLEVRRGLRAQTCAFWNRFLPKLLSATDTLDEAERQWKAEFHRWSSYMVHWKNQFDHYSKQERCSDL
Description: Binding affinity to mouse AChE by equilibrium binding assay

Test [6] deals with T4, Acetylcholinesterase. This is another data set of the same source.
Description: Binding affinity to mouse AChE
Test [7] addresses Acetylcholinesterase (Homo sapiens, UniProt P22303). Kind of test: Binding affinity to human AChE.
For test [8], the target named is T2, Acetylcholinesterase.
The target of test [9] is Cholinesterase (Equus caballus, UniProt P81908). The test can be described thus: Inhibition of horse BuChE.
Cholinesterase (Equus caballus, UniProt P81908), sequence (P81908 whole entry): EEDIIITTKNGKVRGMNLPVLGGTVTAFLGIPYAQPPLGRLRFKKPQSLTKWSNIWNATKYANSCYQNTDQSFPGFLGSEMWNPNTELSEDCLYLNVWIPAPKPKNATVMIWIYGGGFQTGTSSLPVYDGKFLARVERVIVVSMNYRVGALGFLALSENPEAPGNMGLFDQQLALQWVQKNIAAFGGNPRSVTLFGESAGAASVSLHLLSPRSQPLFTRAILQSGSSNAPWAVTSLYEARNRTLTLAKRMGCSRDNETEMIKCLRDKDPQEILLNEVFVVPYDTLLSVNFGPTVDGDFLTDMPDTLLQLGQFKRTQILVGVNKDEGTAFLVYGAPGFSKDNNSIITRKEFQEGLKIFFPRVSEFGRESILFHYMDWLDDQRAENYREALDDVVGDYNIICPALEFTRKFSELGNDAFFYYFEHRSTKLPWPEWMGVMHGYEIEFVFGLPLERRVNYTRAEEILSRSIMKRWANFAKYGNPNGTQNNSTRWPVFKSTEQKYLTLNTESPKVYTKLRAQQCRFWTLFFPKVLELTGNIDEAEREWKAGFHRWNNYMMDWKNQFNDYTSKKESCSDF
A short description of test [10]: Ratio of Ki for fetal bovine serum AChE to Ki for horse BuChE.
Another test deals with Butyrylcholinesterase (Rattus norvegicus, UniProt Q9JKC1).
Butyrylcholinesterase, sequence (Q9JKC1 whole entry): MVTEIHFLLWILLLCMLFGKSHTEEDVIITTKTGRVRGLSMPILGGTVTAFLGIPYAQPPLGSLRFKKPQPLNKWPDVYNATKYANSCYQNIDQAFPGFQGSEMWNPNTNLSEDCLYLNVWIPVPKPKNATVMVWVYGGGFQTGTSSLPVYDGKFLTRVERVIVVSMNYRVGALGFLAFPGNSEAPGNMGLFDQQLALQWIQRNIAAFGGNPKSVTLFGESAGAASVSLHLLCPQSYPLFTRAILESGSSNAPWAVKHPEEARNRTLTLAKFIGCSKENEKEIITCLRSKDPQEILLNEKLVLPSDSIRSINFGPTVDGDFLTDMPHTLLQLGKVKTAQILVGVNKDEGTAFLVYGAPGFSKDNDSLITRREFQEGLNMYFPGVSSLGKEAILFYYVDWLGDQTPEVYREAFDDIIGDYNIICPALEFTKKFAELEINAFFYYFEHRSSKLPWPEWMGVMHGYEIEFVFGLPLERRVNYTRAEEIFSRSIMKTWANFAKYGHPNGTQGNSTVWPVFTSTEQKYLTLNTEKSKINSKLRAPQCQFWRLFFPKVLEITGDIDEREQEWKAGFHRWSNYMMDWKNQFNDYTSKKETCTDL

Acetylcholinesterase (Homo sapiens, UniProt P22303), sequence (P22303 whole entry): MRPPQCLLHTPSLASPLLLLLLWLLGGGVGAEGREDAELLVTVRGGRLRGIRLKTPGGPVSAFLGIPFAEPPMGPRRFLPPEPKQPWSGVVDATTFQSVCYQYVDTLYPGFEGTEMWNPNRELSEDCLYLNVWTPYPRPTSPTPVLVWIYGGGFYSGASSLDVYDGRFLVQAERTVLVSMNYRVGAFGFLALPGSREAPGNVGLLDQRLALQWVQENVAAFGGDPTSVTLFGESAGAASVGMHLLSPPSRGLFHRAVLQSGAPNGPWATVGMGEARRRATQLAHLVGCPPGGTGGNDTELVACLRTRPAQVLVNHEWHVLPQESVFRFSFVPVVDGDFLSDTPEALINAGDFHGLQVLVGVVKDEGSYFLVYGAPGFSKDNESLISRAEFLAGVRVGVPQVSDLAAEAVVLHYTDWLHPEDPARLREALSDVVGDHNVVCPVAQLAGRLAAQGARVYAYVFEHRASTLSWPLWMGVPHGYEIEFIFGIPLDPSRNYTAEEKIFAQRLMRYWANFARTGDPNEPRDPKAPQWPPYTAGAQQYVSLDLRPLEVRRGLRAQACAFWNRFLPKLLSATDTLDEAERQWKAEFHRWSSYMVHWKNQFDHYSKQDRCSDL

For the molecule `NCCCCCCCCNc1c2c(nc3ccccc13)CCCC2`, the midpoint of inhibition against Acetylcholinesterase [1], the IC50, lay at 1.5 nM.

With `Nc1ccc2c(c1)c(-c1ccccc1)[n+](CCCCCCc1cn(CCNc3c4c(nc5ccccc35)CCCC4)nn1)c1cc(N)ccc21`, the Ki on Cholinesterase [2] was 0.46 nM. For the molecule `CCN(C)C(=O)Oc1cccc([C@H](C)N(C)C)c1` [RIVASTIGMINE], the Ki at Acetylcholinesterase [3] stood at 0.033 M⁻¹ s⁻¹. As for `C=CC[N+](C)(C)c1ccc(CCC(=O)CCc2ccc([N+](C)(C)CC=C)cc2)cc1`, the Ki at Acetylcholinesterase [4] stood at 57.1 nM. Turning to `CC[N+](CC)(CCNC(=O)C(=O)NCC[N+](CC)(CC)Cc1ccccc1Cl)Cc1ccccc1Cl` [AMBENONIUM], the equilibrium dissociation constant (Kd) is 46000 nM at Acetylcholinesterase [5] and 54000 nM on Acetylcholinesterase [6].

Regarding `Nc1ccc2c(c1)c(-c1ccccc1)[n+](CCCCCCc1cnnn1CCNc1c3c(nc4ccccc14)CCCC3)c1cc(N)ccc21`, the Ki on Cholinesterase [2] is 0.72 nM. On Acetylcholinesterase [7], `CCC1=CC2Cc3nc4cc(Cl)ccc4c(N)c3[C@@H](C1)C2` [HUPRINE X] returned a Ki of 0.67 nM. `C[N+](C)(C)CCCCCCCCCC[n+]1c(-c2ccccc2)cc(N)c2ccc3ccc(N)cc3c21`: the dissociation constant Kd came to 160000 nM at Acetylcholinesterase [5] and 79000 nM at Acetylcholinesterase [6]. Take `CCc1ccccc1NC(=O)Oc1ccc2c(c1)[C@]1(C)CCN(C)O[C@@H]1N2C` [GANSTIGMINE]: the IC50 on Acetylcholinesterase [8] was determined as 5120 nM. `c1ccc2c(NCCCCCCCNc3c4c(nc5ccccc35)CCCC4)c3c(nc2c1)CCCC3` yielded a Ki on Cholinesterase [9] of 2 nM.

On Cholinesterase [9], `CN(CCCNc1c2c(nc3ccccc13)CCCC2)CCCSc1c2c(nc3ccccc13)CCCC2` gave a Ki of 4.2 nM. The Ratio Ki in test [10] turned out to be 2.17. In the case of `c1ccc2c(c1)NC1CCCCC1=C2NCCCCCCCCNC1CCNC2CCCCC21` (stereo unspecified), the concentration for half-maximal inhibition (IC50) against Acetylcholinesterase [1] is 8.8 nM; at Butyrylcholinesterase, 110 nM.
